From US20150352108A1, “AMINO-PYRIMIDINE COMPOUNDS AS INHIBITORS OF TBK1 AND/OR IKK EPSILON” (Alzheimer's Institute of America, priority 2009, published 2015)

Tests used:
IKKε = biological target: T1, IKKε (Homo sapiens, UniProt Q14164); assay: In-vitro IKKε kinase assay ([γ33]ATP filter-plate); format: biochemical; details: text bins; read-out: IC50 for inhibition of the kinase activity of IKKε
T1 construct: His-tag; made in house; host or cells: Sf9 insect cells
T1 sequence (Q14164 1-716): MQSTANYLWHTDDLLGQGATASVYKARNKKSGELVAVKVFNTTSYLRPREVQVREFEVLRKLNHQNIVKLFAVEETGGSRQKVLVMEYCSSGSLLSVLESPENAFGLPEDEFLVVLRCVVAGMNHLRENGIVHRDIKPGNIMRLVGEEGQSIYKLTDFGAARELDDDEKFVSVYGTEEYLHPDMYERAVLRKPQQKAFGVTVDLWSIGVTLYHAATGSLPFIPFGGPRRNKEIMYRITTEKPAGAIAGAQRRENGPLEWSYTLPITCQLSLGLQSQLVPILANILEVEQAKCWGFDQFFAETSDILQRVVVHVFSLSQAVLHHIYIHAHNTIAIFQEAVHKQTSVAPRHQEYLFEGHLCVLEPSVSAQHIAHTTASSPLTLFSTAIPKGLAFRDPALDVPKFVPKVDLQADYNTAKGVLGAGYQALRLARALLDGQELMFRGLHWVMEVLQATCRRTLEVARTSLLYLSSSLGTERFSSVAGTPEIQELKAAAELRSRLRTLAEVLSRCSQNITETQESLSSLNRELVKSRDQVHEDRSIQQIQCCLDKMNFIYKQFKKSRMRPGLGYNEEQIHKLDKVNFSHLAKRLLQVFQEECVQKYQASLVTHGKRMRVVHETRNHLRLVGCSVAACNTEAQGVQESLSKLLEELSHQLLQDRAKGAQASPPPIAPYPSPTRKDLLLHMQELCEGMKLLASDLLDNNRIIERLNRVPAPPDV
In short: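 His-tagged IKKε and TBK1 from Sf9 cells were assayed with myelin basic protein or casein and [γ33]ATP at 2×Km ATP (32 μM for IKKε, 60 μM for TBK1). Enzyme was 0.1 or 0.015 μg/ml for IKKε and 0.1 or 0.02 μg/ml for TBK1 (normal/sensitized). Reactions ran 30-45 min, were filter-captured, scintillation-counted, and normalized to DMSO after background subtraction.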

[1] = system: RANTES production, human fibroblast-like synoviocytes (HFLS-RA); assay: Inhibition of RANTES production by HFLS-RA cells induced with Poly(I:C); format: cell-based; details: Poly(I:C) induction
Method: (§1) HFLS cells (HFLS-RA) isolated from patients with rheumatoid arthritis were obtained from Cell Applications, Inc. (San Diego, Calif.). Cells were seeded in synoviocyte growth medium (Cell Applications, Inc., San Diego, Calif.) and allowed to grow overnight. The following day, media was replaced and cells were treated with varying concentrations of selected compounds according to Formula I (e.g., Example Compound 5) (0.1% final DMSO concentration). Two hours later, cells were induced with 50 µg/mL Poly(I:C) (Sigma-Aldrich, St. Louis, Mo.). Supernatants were collected 20 hours post-induction and used to monitor RANTES and IP-10 levels using DuoSet ELISA kits (Human CXCL10/IP-10 DuoSet & Human CCL5/RANTES DuoSet; R&D Systems, Inc., Minneapolis, Minn.).

[2] = system: IP-10 production, human fibroblast-like synoviocytes (HFLS-RA); assay: Inhibition of IP-10 production by HFLS-RA cells induced with Poly(I:C); format: cell-based; details: Poly(I:C) induction
Method: as §1

[3] = system: IFN-α2 mRNA, normal PBMCs; assay: Agonist induced IFN-α2 mRNA in PBMCs from healthy donors (qRT-PCR); format: cell-based, human; details: LMW poly(I:C), serial dilutions
Source text: (§2) To determine if inhibition of IKKε and/or TBK1 modulates nucleic acid agonist induced gene expression, high molecular weight poly(I:C) (MDA5 agonist) and low weight poly(I:C) (RIG-I agonist) were electroporated into human peripheral blood mononuclear cells (PBMCs) obtained from normal donors, or low molecular weight Poly(I:C) was electroporated into PBMCs from donors that have Systemic Lupus Erythematosus (SLE). Induction of IFN-α2, IFN-β, and BLyS mRNA production was monitored by qRT-PCR.
(§3) Human PBMCs were collected from healthy donors using routine laboratory procedures. PBMCs from SLE patients were purchased from Astarte Biologics (Redmond, Wash.). The PBMCs were electroporated using Nucleofector® Kit V (Lonza, Walkersville, Md.) with 0.4 ug/mL of high molecular weight poly (I:C) (InvivoGen, San Diego, Calif.) or 0.4 ug/mL low molecular weight poly (I:C) (InvivoGen, San Diego, Calif.) and seeded into wells containing serial dilutions of Example Compound 5 (0.1% final DMSO concentration). […] RNA was quantitated using Quant-iT™ RiboGreen® RNA Assay Kit (Invitrogen, Carlsbad, Calif.). Reverse transcription and real-time PCR were performed using the QuantiTect Probe RT-PCR Kit (Qiagen, Germantown, Md.) and the 7300 Real-Time PCR System (Applied Biosytems, Foster City, Calif.). […]

[4] = system: IFN-β1 mRNA, normal PBMCs; assay: Agonist induced IFN-β1 mRNA in PBMCs from healthy donors (qRT-PCR); format: cell-based, human; details: LMW poly(I:C), serial dilutions
Source text: as §2, §3

BLyS mRNA, normal PBMCs = assay: Agonist induced BLyS mRNA in PBMCs from healthy donors (qRT-PCR); format: cell-based, human; details: LMW poly(I:C), serial dilutions
Source text: as §2, §3

IFN-β1 mRNA, SLE PBMCs = assay: Agonist induced IFN-β1 mRNA in PBMCs from SLE patients (qRT-PCR); format: cell-based, human; details: LMW poly(I:C), serial dilutions
Source text: as §2, §3

BLyS mRNA, SLE PBMCs = assay: Agonist induced BLyS mRNA in PBMCs from SLE patients (qRT-PCR); format: cell-based, human; details: LMW poly(I:C), serial dilutions
Source text: as §2, §3

N#Cc1cc(-c2ccnc(Nc3ccc(N4CCOCC4)cc3)n2)ccc1OC1CCOCC1 [Example 5, 5-(2-{[4-(Morpholin-4-yl)phenyl]amino}pyrimidin-4-yl)-2-(tetrahydro-2H-pyran-4-yloxy)benzaonitrile]
IC50 (IKKε): < 5 nM
IC50 [1]: ~60 nM
IC50 [2]: ~60 nM
induction of IFN-α2 mRNA [3]: potently inhibited
induction of IFN-β1 mRNA [4]: potently inhibited
induction of BLyS mRNA (BLyS mRNA, normal PBMCs): potently inhibited
induction of IFN-β1 mRNA (IFN-β1 mRNA, SLE PBMCs): potently inhibited
induction of BLyS mRNA (BLyS mRNA, SLE PBMCs): potently inhibited
